Patent US9920073B2, “Compositions useful for inhibiting HIV-1 infection and methods using same” (Drexel University, priority 2013, dated 2018)
Like-named read-outs stand apart in the source and are kept apart here.

How the values were obtained:
[1] = tested on: HIV-1YU-2; test: microbe, parasite or virus in culture; assay type: cell-based
[2] = tested on: amphotropic murine leukemia virus (AMLV); test: microbe, parasite or virus in culture; assay type: cell-based; settings: specificity control
[3] = Human immunodeficiency virus 1, read-out: IC50 YU-2, single round infection assay
[4] = Murine leukemia virus, read-out: IC50 AMLV, Table 2 screening results
[5] = read-out: IC50 YU-2, single round infection assay
[6] = read-out: IC50 AMLV, Table 2 screening results

With `O=C(c1ccco1)N1CCN(C(O)COc2ccc(Cl)cc2[N+](=O)[O-])CC1` (centres unmarked) [Compound 39] the IC50 [1, 3] was > 50 µM and the IC50 [2, 4] was > 50 µM.

In the case of `O=C(COc1cccc2ccccc12)N1CCN(C(=O)c2ccccc2)CC1` [Compound 12], the IC50 [1, 3] is reported as 53.3 ± 3.7 µM and the IC50 [2, 4] is reported as > 300 µM.

With `Cc1ccc2nc(C)c(C(=O)N3CCN(C(=O)c4ccccc4)CC3)cc2c1` [Compound 9] the IC50 [1, 3] was > 300 µM and the IC50 [2, 4] was > 300 µM.

`O=C(c1ccccc1)N1CCN(C(=O)c2cc(-c3ccncc3)nc3ccccc23)CC1` [Compound 27] was tested, and the IC50 [1, 3] was > 50 µM and the IC50 [2, 4] was > 50 µM.

`Cc1nn(-c2ccccc2)c(C)c1C(=O)C(=O)N1CCN(C(=O)c2ccccc2)CC1` [Compound 36] was tested, and the IC50 [1, 5] was > 50 µM and the IC50 [2, 6] was > 50 µM.

With `O=C(COc1cccc(Br)c1)N1CCN(C(=O)c2ccccc2)CC1` [Compound 6] the IC50 [1, 3] was > 300 µM and the IC50 [2, 4] was > 300 µM.

In the case of `CCOC(=O)N1CCN(C(=O)C(=O)c2c(C)[nH]c3ccccc23)CC1` [Compound 31], the IC50 [1, 3] is reported as > 50 µM and the IC50 [2, 4] is reported as > 50 µM.

For `CCc1cc(C(=O)N2CCN(C(=O)c3ccccc3)CC2)sc1C` [Compound 5], the IC50 [1, 3] was > 300 µM and the IC50 [2, 4] was > 300 µM.

In the case of `COc1cccc(C(=O)N2CCN(C(=O)COc3cccc4ccccc34)CC2)c1` [Compound 47], the IC50 [1, 3] is reported as > 50 µM and the IC50 [2, 4] is reported as > 50 µM.

`Cc1cnc2c(S(=O)(=O)N3CCN(C(=O)c4ccc(C)s4)CC3)cccc2c1` [Compound 35] was tested, and the IC50 [1, 3] was > 50 µM and the IC50 [2, 4] was > 50 µM.

In the case of `O=C(CSc1ncnc2sccc12)N1CCN(C(=O)c2cccs2)CC1` [Compound 28], the IC50 [1, 3] is reported as 1.6 ± 0.4 µM and the IC50 [2, 4] is reported as > 50 µM.

`O=C1CSc2ccc(C(=O)N3CCN(C(=O)c4cccs4)CC3)cc2N1` [Compound 7] was tested, and the IC50 [1, 3] was > 300 µM and the IC50 [2, 4] was > 300 µM.

In the case of `O=C(c1ccccc1)N1CCN(S(=O)(=O)c2ccc(Cl)c(C(F)(F)F)c2)CC1` [Compound 4], the IC50 [1, 3] is reported as > 300 µM and the IC50 [2, 4] is reported as > 300 µM.

`O=C(c1ccccc1)N1CCN(C(=O)c2csc(-c3ccccc3)n2)CC1` [Compound 16] was tested, and the IC50 [1, 3] was > 300 µM and the IC50 [2, 4] was > 300 µM.

`COc1ccc(Br)cc1C=CC(=O)N1CCC(C(=O)c2ccccc2)CC1` [Compound 15] gave an IC50 [1, 3] of 156 µM and an IC50 [2, 4] of 210 µM.

In the case of `COc1ccc(C(=O)N2CCN(C(=O)COc3cccc4ccccc34)CC2)cc1` [Compound 50], the IC50 [1, 3] is reported as > 50 µM and the IC50 [2, 4] is reported as > 50 µM.

In the case of `O=C(c1ccccc1)N1CCN(C(=O)c2ccc(N3CCOCC3)c([N+](=O)[O-])c2)CC1` [Compound 29], the IC50 [1, 3] is reported as > 50 µM and the IC50 [2, 4] is reported as > 50 µM.

In the case of `Cc1ccc(C(C)C)c(OCC(=O)N2CCN(C(=O)c3ccccc3)CC2)c1` [Compound 49], the IC50 [1, 5] is reported as > 50 µM and the IC50 [2, 6] is reported as > 50 µM.

`O=C(c1cc(-c2ccc(Cl)cc2)on1)N1CCN(S(=O)(=O)c2ccccc2F)CC1` [Compound 14] was tested, and the IC50 [1, 3] was > 300 µM and the IC50 [2, 4] was > 300 µM.

In the case of `COc1ccc(OC)c(/C=C/C(=O)N2CCN(C(=O)C3CC3)CC2)c1` [Compound 45], the IC50 [1, 3] is reported as > 50 µM and the IC50 [2, 4] is reported as > 50 µM.

For `Cc1cc(C)nc(SCC(=O)N2CCN(C(=O)c3ccccc3)CC2)n1` [Compound 34], the IC50 [1, 3] was 19.4 µM and the IC50 [2, 4] was > 50 µM.

With `CC(C)n1ncc2c(C(=O)N3CCN(C(=O)c4ccccc4)CC3)cc(-c3ccco3)nc21` [Compound 37] the IC50 [1, 3] was > 50 µM and the IC50 [2, 4] was > 50 µM.

For `Cc1nc2ccc(Cl)cc2cc1C(=O)N1CCN(S(=O)(=O)c2ccccc2)CC1` [Compound 17], the IC50 [1, 3] was 193 µM and the IC50 [2, 4] was 238 µM.

For `Cc1nn(-c2ccccc2)c(C)c1C(=O)C(=O)N1CCN(C(=O)c2ccccc2)CC1` [Compound 20], the IC50 [1, 5] was > 300 µM and the IC50 [2, 6] was > 300 µM.

In the case of `O=C(c1ccccc1)N1CCN(S(=O)(=O)c2ccc3c(c2)CCCC3)CC1` [Compound 13], the IC50 [1, 3] is reported as 117 µM and the IC50 [2, 4] is reported as 197 µM.

For `O=C(COc1cccc2ccccc12)N1CCN(C(=O)c2ccccc2F)CC1` [Compound 33], the IC50 [1, 3] was > 50 µM and the IC50 [2, 4] was > 50 µM.

`O=C(c1ccccn1)N1CCN(S(=O)(=O)c2ccc3c(c2)OCCO3)CC1` [Compound 3] was tested, and the IC50 [1, 3] was > 300 µM and the IC50 [2, 4] was > 300 µM.

With `CCc1ccc(C(=O)N2CCN(C(=O)c3cc4cc(C)ccc4nc3C)CC2)cc1` [Compound 22] the IC50 [1, 3] was > 300 µM and the IC50 [2, 4] was > 300 µM.
